Assays:
[1] = test system: C57BL/6J male mice; assay: Long term memory for object recognition (ORM); assay type: in vivo; conditions: s.c. 3, 10, 30 mg/kg
Procedure: C57BL/6J male mice were handled 1-2 min for 5 days and were habituated to the experimental apparatus 5 min a day for 4 consecutive days in the absence of objects. […] 24-h later mice were tested for memory retention (5 min) using the object recognition memory task (ORM), in which a familiar object was replaced with a novel one. All training and testing trials were videotaped and analyzed by individuals blind to the treatment condition and the genotype of subjects. A mouse was scored as exploring an object when its head was oriented toward the object within a distance of 1 cm or when the nose was touching the object. The relative exploration time was recorded and expressed by a discrimination index [DI=(tnovel−tfamiliar)/(tnovel+tfamiliar)×100].

[2] = molecular target: HDAC1 (Homo sapiens (Human), UniProt Q13547); assay: HDAC activity inhibition assay, HDAC1; assay type: biochemical; conditions: Table 1; 2 hours pre-incubation
Procedure: (§1) The HDAC activity inhibition assay was performed as follows to determine the ability of a test compound to inhibit HDAC enzymatic activity. […] Following pre-incubation, Fluor-de-Lys™ substrate (Enzo Life Sciences, Plymouth Meeting, Pa., BML-KI104-0050) was added to a final concentration of 10 μM and plates were further incubated for 30 minutes at room temperature. […] IC50 values were calculated by using a sigmoidal dose-response (variable slope) equation in GraphPad Prism® 5 for Windows (GraphPad Software, La Jolla, Calif.).

[3] = molecular target: HDAC2 (Homo sapiens (Human), UniProt Q92769); assay: HDAC activity inhibition assay, HDAC2; assay type: biochemical; conditions: Table 1; 2 hours pre-incubation
Procedure: as §1

[4] = molecular target: HDAC3/NcoR2 (Homo sapiens (Human), UniProt O15379); assay: HDAC activity inhibition assay, HDAC3/NcoR2; assay type: biochemical; conditions: Table 1; 2 hours pre-incubation
Procedure: as §1

[5] = test system: GM 15850(lymphoblastoid cells line) cells; assay: In-cell deacetylase inhibition assay (DAC assay); assay type: cell-based; conditions: Homo sapiens, GM15850; GM 15850 cells, 4 h incubation; read-out: 850 DAC (in-cell deacetylase inhibition IC50)
Procedure: Compound dilutions were made in 100% DMSO followed by parallel dilution in media with 2% DMSO. 10 μl of the compound dilutions were added to the cells to achieve the desired concentrations. The final concentration of DMSO in each well was 0.2%. The cells were incubated for 4 h at 37° C. with 5% CO2. After incubation, the cells were centrifuged down and the supernatant was removed. […] The reaction was stopped after 30 min incubation by addition of 50 μL developer (6 mg/mL trypsin in HDAC assay buffer). The reaction was allowed to develop for 30 min at room temperature and the fluorescence signal was detected using a fluorometer (Spectramax M2, Molecular Devices, Sunnyvale, Calif.) with excitation and emission wavelengths of 360 nm and 470 nm respectively. The data was fitted to a sigmoidal dose response equation with variable slope in GraphPad Prism 5.0 (GraphPad Software, La Jolla, Calif.) to determine IC50. Bottom and top of the curve were fixed to the average fluorescence response of control wells with no cells and cells but no compound respectively.

Sequence of HDAC2 (Q92769 whole entry): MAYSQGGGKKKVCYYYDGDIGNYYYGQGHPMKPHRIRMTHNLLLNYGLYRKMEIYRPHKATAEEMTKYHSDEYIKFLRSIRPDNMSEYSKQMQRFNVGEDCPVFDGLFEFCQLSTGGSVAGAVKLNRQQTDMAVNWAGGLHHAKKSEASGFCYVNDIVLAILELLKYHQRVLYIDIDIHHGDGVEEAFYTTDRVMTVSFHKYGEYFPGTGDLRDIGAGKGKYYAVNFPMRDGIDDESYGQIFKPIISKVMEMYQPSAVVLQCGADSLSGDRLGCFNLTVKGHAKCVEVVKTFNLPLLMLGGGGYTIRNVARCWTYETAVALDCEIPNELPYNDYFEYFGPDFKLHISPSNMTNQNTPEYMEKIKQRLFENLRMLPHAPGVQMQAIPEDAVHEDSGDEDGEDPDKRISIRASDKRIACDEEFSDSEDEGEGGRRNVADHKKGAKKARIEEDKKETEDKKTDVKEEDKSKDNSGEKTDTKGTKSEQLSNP
Sequence of HDAC1 (Q13547 whole entry): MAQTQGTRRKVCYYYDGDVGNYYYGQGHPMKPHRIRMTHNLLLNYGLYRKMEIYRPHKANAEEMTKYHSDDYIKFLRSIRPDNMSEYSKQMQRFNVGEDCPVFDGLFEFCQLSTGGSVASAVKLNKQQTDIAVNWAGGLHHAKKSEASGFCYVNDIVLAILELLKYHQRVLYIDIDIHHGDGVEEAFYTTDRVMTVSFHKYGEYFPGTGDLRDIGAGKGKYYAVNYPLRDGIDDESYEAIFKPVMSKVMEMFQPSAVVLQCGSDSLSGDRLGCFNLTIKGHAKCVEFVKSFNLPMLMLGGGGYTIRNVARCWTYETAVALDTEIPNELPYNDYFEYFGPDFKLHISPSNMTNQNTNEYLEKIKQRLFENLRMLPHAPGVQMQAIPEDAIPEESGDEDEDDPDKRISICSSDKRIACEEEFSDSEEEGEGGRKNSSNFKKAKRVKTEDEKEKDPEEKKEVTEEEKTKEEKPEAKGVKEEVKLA
Sequence of HDAC3/NcoR2 (O15379 whole entry): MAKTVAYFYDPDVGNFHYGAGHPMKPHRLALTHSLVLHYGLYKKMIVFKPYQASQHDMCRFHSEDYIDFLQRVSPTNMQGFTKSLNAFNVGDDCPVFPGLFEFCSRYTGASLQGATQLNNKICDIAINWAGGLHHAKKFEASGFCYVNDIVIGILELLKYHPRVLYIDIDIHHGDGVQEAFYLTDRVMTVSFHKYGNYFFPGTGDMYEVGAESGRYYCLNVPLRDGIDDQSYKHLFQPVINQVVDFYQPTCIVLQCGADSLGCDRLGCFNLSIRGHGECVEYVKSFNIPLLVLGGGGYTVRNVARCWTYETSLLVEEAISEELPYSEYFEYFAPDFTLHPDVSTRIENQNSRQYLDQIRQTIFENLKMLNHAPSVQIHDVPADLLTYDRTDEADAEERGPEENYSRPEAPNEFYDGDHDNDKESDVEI
Sequence of HDAC3/NcoR2 (Q9Y618 395-489 partner): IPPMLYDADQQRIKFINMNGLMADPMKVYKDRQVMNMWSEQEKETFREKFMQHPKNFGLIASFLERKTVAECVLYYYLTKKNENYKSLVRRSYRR

Row | SMILES | effect of dose on long-term memory for object recognition [1] | IC50 [2] [nM] | IC50 [3] [nM] | IC50 [4] [nM] | IC50 [5] [µM]
1 | Nc1cc(F)ccc1NC(=O)/C=C/c1cnn(C/C=C/c2ccccc2)c1 [D2, (E)-N-(2-amino-4-fluorophenyl)-3-(1-cinnamyl-1H-pyrazol-4-yl)acrylamide] | no effect of dose | – | – | – | –
2 | Cc1nn(C/C=C/c2ccccc2)c(C)c1/C=C/C(=O)Nc1ccccc1N [G2, (E)-N-(2-aminophenyl)-3-(1-cinnamyl-3,5-dimethyl-1H-pyrazol-4-yl)acrylamide] | – | 1000 to 5000 | 1000 to 5000 | < 1000 | 10 to 20
3 | Cc1ccc(C(=O)NCCCCCC(=O)Nc2ccc(F)cc2N)cc1 [RGFP 136, reference compound] | Dose dependent effects | – | – | – | –

Reference: patent US9908899B2 (BIOMARIN PHARMACEUTICAL INC., priority 2011, dated 2018)
